Source: ChEMBL document CHEMBL1124789, “Angiotensin-converting enzyme inhibitors. 9. Novel [[N-(1-carboxy-3-phenylpropyl)amino]acyl]glycine derivatives with diuretic activity” (J Med Chem, 1990)

Experiments:
[1] = target: T1, Angiotensin-converting enzyme (Rattus norvegicus) (UniProt P47820); test: Inhibition of Angiotensin I converting enzyme(ACE) at the dose of 100 mg/kg (po) in rat; assay type: organism-based; set-up: dose 100 mg/kg
T1 sequence (whole entry): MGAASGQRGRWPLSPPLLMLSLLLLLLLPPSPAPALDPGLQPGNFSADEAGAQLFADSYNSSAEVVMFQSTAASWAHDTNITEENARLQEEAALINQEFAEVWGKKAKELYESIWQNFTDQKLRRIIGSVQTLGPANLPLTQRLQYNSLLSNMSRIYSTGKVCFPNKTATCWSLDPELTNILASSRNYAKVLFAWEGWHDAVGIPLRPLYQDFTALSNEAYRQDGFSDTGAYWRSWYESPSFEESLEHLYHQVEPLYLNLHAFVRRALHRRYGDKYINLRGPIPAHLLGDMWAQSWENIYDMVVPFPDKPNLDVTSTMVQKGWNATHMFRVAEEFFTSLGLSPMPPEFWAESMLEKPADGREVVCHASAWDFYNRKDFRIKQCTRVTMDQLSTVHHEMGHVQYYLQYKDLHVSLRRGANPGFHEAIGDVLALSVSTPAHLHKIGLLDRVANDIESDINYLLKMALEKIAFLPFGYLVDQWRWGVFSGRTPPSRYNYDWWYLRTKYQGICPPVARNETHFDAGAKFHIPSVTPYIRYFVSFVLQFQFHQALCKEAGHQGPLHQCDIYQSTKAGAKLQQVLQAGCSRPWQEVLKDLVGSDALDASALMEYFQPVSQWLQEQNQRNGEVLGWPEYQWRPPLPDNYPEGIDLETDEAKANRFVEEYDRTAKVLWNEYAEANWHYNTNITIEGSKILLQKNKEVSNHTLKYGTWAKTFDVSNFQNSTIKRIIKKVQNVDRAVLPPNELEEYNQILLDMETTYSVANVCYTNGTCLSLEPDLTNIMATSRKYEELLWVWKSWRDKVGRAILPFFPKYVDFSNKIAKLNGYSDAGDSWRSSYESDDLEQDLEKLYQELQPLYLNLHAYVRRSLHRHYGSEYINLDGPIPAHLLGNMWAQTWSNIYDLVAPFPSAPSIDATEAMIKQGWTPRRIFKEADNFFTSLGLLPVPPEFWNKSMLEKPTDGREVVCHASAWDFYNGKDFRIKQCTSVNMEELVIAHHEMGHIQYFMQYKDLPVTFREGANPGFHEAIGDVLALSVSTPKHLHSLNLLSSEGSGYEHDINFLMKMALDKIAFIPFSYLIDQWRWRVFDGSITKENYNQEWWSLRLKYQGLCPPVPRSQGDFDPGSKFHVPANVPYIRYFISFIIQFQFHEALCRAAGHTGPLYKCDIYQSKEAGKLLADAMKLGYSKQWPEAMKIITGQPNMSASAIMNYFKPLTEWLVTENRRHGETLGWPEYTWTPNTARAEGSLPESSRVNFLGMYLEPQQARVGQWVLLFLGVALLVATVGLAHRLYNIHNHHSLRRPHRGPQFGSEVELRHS

[2] = target: T2, Angiotensin-converting enzyme (Rattus norvegicus, UniProt P47820); test: In vitro inhibitory activity against Angiotensin I converting enzyme(ACE)
T2 sequence (P47820 whole entry): T1 sequence (whole entry)

Rattus norvegicus [3] = organism: Rattus norvegicus; test: Duration of action on ACE in rat; assay type: functional
Rattus norvegicus [4] = test: Diuretic activity (ip);ND- Natriuresis and diuresis; assay type: functional, organism-based; conditions: Urine
Rattus norvegicus [5] = test: Diuretic activity (po); NI-No Increase; assay type: functional, organism-based; conditions: Urine
[6] = target: T1, Angiotensin-converting enzyme (Rattus norvegicus); test: Inhibition of Angiotensin I converting enzyme(ACE) at the dose of 30 mg/kg (po) in rat; assay type: organism-based; set-up: dose 30 mg/kg
[7] = target: T1, Angiotensin-converting enzyme (Rattus norvegicus); test: Inhibition of Angiotensin I converting enzyme(ACE) at the dose of 100 mg/kg (ip) in rat; assay type: organism-based; set-up: dose 100 mg/kg
Rattus norvegicus [8] = test: Diuretic activity (po);NI- No increase; assay type: functional, organism-based; conditions: Urine
[9] = target: T2, Angiotensin-converting enzyme; test: (§1) In vitro inhibitory activity against Angiotensin I converting enzyme (ACE)
[10] = target: T1, Angiotensin-converting enzyme (Rattus norvegicus); test: Inhibition of Angiotensin I converting enzyme(ACE) at the dose of 10 mg/kg (po) in rat; assay type: organism-based; set-up: dose 10 mg/kg
Rattus norvegicus [11] = test: Diuretic activity (ip);NI- No increase; assay type: functional, organism-based; conditions: Urine
Rattus norvegicus [12] = test: Diuretic activity (ip);NI- No Increase; assay type: functional, organism-based; conditions: Urine
Rattus norvegicus [13] = test: Diuretic activity (ip);NI-No increase; assay type: functional, organism-based; conditions: Urine
Canis familiaris [14] = test: Diuretic activity (po) in dog; ND- Natriuresis and diuresis; assay type: functional, organism-based; conditions: Canis lupus familiaris; Urine
[15] = target: Angiotensin-converting enzyme (Homo sapiens) (UniProt P12821); test: In vitro inhibitory activity against Angiotensin I converting enzyme(ACE) in dog; conditions: Canis lupus familiaris; target entry is the homologue from another species; concentration not given here
Angiotensin-converting enzyme (Homo sapiens), sequence (P12821 whole entry): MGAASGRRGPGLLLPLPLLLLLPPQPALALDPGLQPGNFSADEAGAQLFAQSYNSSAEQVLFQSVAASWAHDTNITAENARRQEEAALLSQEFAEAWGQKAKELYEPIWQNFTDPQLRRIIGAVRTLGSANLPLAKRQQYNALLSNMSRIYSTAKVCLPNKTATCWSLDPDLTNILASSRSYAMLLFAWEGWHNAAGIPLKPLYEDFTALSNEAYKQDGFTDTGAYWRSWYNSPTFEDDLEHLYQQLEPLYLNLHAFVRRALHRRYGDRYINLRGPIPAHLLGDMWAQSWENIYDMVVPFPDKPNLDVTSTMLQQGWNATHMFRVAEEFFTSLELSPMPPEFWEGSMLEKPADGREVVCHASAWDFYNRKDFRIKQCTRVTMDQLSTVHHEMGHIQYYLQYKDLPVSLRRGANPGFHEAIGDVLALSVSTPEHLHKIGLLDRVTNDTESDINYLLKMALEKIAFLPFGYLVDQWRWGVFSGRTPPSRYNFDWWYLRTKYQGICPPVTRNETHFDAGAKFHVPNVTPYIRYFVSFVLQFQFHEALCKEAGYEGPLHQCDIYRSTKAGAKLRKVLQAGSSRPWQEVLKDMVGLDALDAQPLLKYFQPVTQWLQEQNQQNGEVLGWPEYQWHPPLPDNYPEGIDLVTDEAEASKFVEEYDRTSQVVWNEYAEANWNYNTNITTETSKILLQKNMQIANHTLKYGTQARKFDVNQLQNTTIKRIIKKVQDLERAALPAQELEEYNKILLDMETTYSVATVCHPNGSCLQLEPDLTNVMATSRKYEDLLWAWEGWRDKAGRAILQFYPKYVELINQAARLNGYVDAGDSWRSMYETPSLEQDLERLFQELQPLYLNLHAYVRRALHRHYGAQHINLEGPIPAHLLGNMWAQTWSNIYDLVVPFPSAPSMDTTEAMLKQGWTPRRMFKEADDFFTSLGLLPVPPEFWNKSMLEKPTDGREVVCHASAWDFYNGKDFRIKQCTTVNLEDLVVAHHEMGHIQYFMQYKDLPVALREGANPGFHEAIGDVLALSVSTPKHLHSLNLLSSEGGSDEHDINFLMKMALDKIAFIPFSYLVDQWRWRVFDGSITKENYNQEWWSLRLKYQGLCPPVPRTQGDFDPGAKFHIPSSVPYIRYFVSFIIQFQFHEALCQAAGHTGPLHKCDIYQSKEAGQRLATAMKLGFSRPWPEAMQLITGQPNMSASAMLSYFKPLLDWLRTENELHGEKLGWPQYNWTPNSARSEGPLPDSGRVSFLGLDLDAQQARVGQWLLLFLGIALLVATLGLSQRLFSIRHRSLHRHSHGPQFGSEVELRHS

Canis familiaris [16] = test: Maximum percent decrease in blood pressure at the dose of 100 mg/kg ip; assay type: functional, Canis lupus familiaris; conditions: route intraperitoneal
Rattus norvegicus [17] = test: Diuretic activity (po); ND-Natriuresis&diuresis; assay type: functional, organism-based; conditions: Urine
[18] = target: T1, Angiotensin-converting enzyme (Rattus norvegicus); test: as §1; conditions: concentration not given here
Rattus norvegicus [19] = test: Diuretic activity (po);ND- Natriuresis and diuresis; assay type: functional, organism-based; conditions: Urine
[20] = target: T1, Angiotensin-converting enzyme (Rattus norvegicus); test: Inhibition of Angiotensin I converting enzyme(ACE) at the dose of 10 mg/kg (ip) in rat; assay type: organism-based; set-up: dose 10 mg/kg; scale not given: the % may be the effect or the level left

ACE inhibition [1] [%]	IC50 [2] [µM]	ACE inhibition [7] [%]	IC50 [9] [µM]	Compound	Duration (Rattus norvegicus [3]) [h]	further results
< 30	2.2	80		C[C@H](N[C@@H](CCc1ccccc1)C(=O)O)C(=O)N(CC(=O)O)CC(=O)Nc1cc(C(=O)O)cc(S(N)(=O)=O)c1Cl.Cl	3	Activity (Rattus norvegicus [5]): No increase; ACE inhibition [6]: < 30%
	0.16	100		C[C@H](N[C@@H](CCc1ccccc1)C(=O)O)C(=O)N(CC(=O)O)Cc1cc(C(C)(C)C)cc(I)c1O.Cl	3	Activity (Rattus norvegicus [11]): No increase
			38	C[C@H](N[C@@H](CCc1ccccc1)C(=O)O)C(=O)N(CCCNC(=O)c1ccc(Cl)c(S(N)(=O)=O)c1)CC(=O)O		Activity (Rattus norvegicus [13]): No increase
50				CCOC(=O)[C@H](CCc1ccccc1)N[C@@H](C)C(=O)N(CC(=O)O)N(C)CC1Nc2cc(Cl)c(S(N)(=O)=O)cc2S(=O)(=O)N1.Cl (stereo not given in full)	<1	inhibition [18]: 74%; Activity (Rattus norvegicus [19]): Natriuresis and diuresis; Activity [20]: 80%

The remaining lines, values behind:

Compound	ACE inhibition [1] [%]	IC50 [2] [µM]	ACE inhibition [7] [%]	IC50 [9] [µM]	Duration (Rattus norvegicus [3]) [h]	further results
Br.C[C@H](N[C@@H](CCc1ccccc1)C(=O)O)C(=O)N(C1CCC2(CC1)Nc1cc(Cl)c(S(N)(=O)=O)cc1S(=O)(=O)N2)C(CCCCN)C(=O)O (stereo not given in full)	50	95			<1	Activity (Rattus norvegicus [4]): Natriuresis and diuresis
Cl.NS(=O)(=O)c1cc(C(=O)NCCCC[C@H](N[C@@H](CCc2ccccc2)C(=O)O)C(=O)N(CC(=O)O)C2Cc3ccccc3C2)ccc1Cl				0.007	3	Activity (Rattus norvegicus [8]): No increase
CCOC(=O)[C@H](CCc1ccccc1)N[C@@H](CCCCNC(=O)c1ccc(Cl)c(S(N)(=O)=O)c1)C(=O)N1CCC[C@H]1C(=O)O.Cl	80		80	15	3	ACE inhibition [10]: 80%; Activity (Rattus norvegicus [4]): Natriuresis and diuresis
Cl.NS(=O)(=O)c1cc(C(=O)NCCCC[C@H](N[C@@H](CCc2ccccc2)C(=O)O)C(=O)N2CCC[C@H]2C(=O)O)ccc1Cl	100		100	0.0065	>3	Activity (Rattus norvegicus [8]): No increase; ACE inhibition [10]: 80%; Activity (Rattus norvegicus [12]): No increase
NS(=O)(=O)c1cc2c(cc1Cl)NC(CN(CC(=O)O)C(=O)[C@H](CCCCNC(=O)OCc1ccccc1)N[C@@H](CCc1ccccc1)C(=O)O)NS2(=O)=O (stereo not given in full)			100	0.24	<1	Activity (Rattus norvegicus [8]): No increase
CCOC(=O)C(CCc1ccccc1)N[C@@H](C)C(=O)N(C1Cc2ccccc2C1)[C@H](CCCCNC(=O)c1ccc(Cl)c(S(N)(=O)=O)c1)C(=O)O.Cl (stereo not given in full)	50		50		3	Activity (Rattus norvegicus [4]): Natriuresis and diuresis
Cl.NCCCC[C@H](N[C@@H](CCc1ccccc1)C(=O)O)C(=O)N(CC(=O)O)CC1Nc2cc(Cl)c(S(N)(=O)=O)cc2S(=O)(=O)N1 (stereo not given in full)	100	0.22	100		3	ACE inhibition [6]: 80%; ACE inhibition [10]: 80%; Activity (Canis familiaris [14]): Natriuresis and diuresis; inhibition [15]: 100%; Decrease (Canis familiaris [16]): 0%; Activity (Rattus norvegicus [17]): Natriuresis and diuresis
